Counter-ions that a name gives are not always drawn.
Tests used:
[1] = tested on: skin sympathetic nerve; assay: Psoriasis model with skin sympathetic nerve ablation (intradermal 6-OHDA before IMQ); assay type: in vivo, mice; conditions: intradermal injection before IMQ treatment
Protocol: In the embodiment of the disclosure, the sympathectomy of local skin is as follows. […] of 6-hydroxydopamine (6-OHDA) are dissolved into 100 microliters (μL) of 0.1% ascorbic acid solution (diluted with 0.9% sterile sodium chloride) to prepare a fresh sympathetic nerve ablation solution. Wild-type mice aged 7-8 weeks are selected to shave their back hair, and the exposed skin area is 2 centimeters (cm)×2 cm. Then, the mice are intradermally injected with 100 μL fresh sympathetic nerve ablation solution, controls are injected with an injecting control agent (100 μL of 0.1% ascorbic acid solution).

[2] = tested on: catecholaminergic neurons; conditions: intraperitoneal injection; cited from earlier work
[3] = tested on: IMQ-induced mice; assay: IMQ-induced psoriasis mouse model smeared with β1-AR antagonist/agonist; assay type: in vivo
Protocol: In the embodiment of the disclosure, the construction of psoriasis mouse model smeared with β1-AR antagonist/agonist is as follows. 5 μL of β1-AR antagonist/agonist storage solution (40 mg/mL, DMSO solvent) is taken and dissolved in 95 μL of 20% sulfobutylether-beta-cyclodextrin derivative (SBE-β-CD) solution (diluted with sterile sodium chloride) to prepare 2 mg/mL antagonist/agonist diluent. Wild-type mice aged 7-8 weeks are selected to shave their back hair, and the exposed skin area is 2 cm×2 cm. The mice are applied with 100 μL of the antagonist/agonist diluent, and controls are smeared with a smearing control agent (i.e., 5 μL DMSO+95 μL 20% SBE-β-CD solution).

[4] = tested on: primary γδT cells; assay: IL17A/F transcription in primary γδT cells stimulated by IL-23 and ACE/DOB; assay type: cell-based, mice; conditions: primary γδT cells activated by IL-23; DOB at high concentration
Excerpt: (§1) In the embodiment of the disclosure, in order to study how to ADRB1 regulates the inflammatory response of γδT cells, high-purity primary γδT cells are isolated from the spleen of mice by magnetic bead sorting kit, and stimulated with ADRB1 agonist and antagonist respectively.

[5] = tested on: NF-κB (P65); assay: Activation of NF-κB, AKT, p38, ERK in IL-23-activated primary γδT cells; assay type: cell-based, mice
Excerpt: as §1

[6] = tested on: NF-κB; assay: NF-κB phosphorylation in skin of IMQ-induced psoriatic mice; assay type: in vivo
[7] = tested on: γδT-cell deficient mice (Tcrd−/−); assay: DOB applied to skin of γδT-cell deficient mice (Tcrd−/−); assay type: in vivo
Excerpt: Combined with the previous results, it is verified that NE in skin is mainly derived from skin sympathetic nerve and mediates the release IL-17 from γδT cells rather than αβT cells through NE-ADRB1 signaling pathway.

[8] = Neurotransmitter content (ELISA) and TH phosphorylation (western blot) in IMQ-treated mice; assay type: in vivo
[9] = tested on: β1-AR; assay: Proportion of β1-AR+ T cells in skin of IMQ-treated mice (immunofluorescence and flow cytometry); assay type: in vivo
Excerpt: In the embodiment of the disclosure, immunofluorescence and flow cytometry are used to detect β1-AR is mainly expressed in IL-17A-producing γδT cells (also referred to as γδT-17 cells), as shown in FIG. 14.

[10] = tested on: IMQ-induced mice; assay: Psoriasis model with subcutaneous norepinephrine (NE) injection; assay type: in vivo; conditions: subcutaneous injection while IMQ is smeared
Protocol: In the embodiment of the disclosure, the construction of psoriasis model injected with norepinephrine (NE) is as follows. 6 μL of norepinephrine storage solution (10 millimoles per liter, abbreviated mM) is dissolved into 100 μL of 1 xphosphate-buffered saline (also referred to as 1×PBS, specifically prepared by a commonly used 1× phosphate buffered saline recipe), and […] NE diluent is prepared. Wild-type mice aged 7-8 weeks are selected to shave their back hair, and the exposed skin area is 2 cm×2 cm. Then, the mice are subcutaneously injected with 100 μL NE diluent, and controls are injected with an injecting control agent (6 μL dimethyl sulfoxide, abbreviated DMSO+100 μL PBS).

[11] = tested on: Dendritic cells (DCs); conditions: cited from earlier work; for IL-17A induced by stimulated DCs / production of IFN-γ by CD4 cells: DCs in mice stimulated
[12] = psoriatic mice treated with IMQ vs control mice treated with VAS

Compound: NCCc1cc(O)c(O)cc1O [6-OHDA, 6-hydroxydopamine]
- IL-17A+γδT cells in sympathetic denervated skin [1]: decreased
- NE in sympathetic denervated skin [1]: decrease
- psoriasis-like phenotype of mice induced by IMQ ([1]; removal of skin sympathetic nerve): reduces
- IMQ induced ear swelling [2]: reduce
- production of IL-17 [2]: does not affect

Compound: CCCC(=O)Nc1ccc(OCC(O)CNC(C)C)c(C(C)=O)c1 (stereo not drawn) [ACE, acebutolol hydrochloride]
- proportion of γδT-17 cells in the skin ([3]; IMQ-induced mice smeared with drug): reduced
- transcription of IL17A [4]: decreases
- transcription of IL17F [4]: decreases
- NF-κB (P65) phosphorylation [5]: inhibits
- activation of P38, ERK, JNK and AKT [5]: do not affect
- activation of NF-κB (phosphorylation) in the skin [6]: inhibition

Compound: CC(CCc1ccc(O)cc1)NCCc1ccc(O)c(O)c1 (stereo not drawn) [DOB, dobutamine hydrochloride]
- IL-17A production of γδT cells in the skin ([3]; IMQ-induced mice): promotes
- back skin thickness, erythema, and scaling ([3]; IMQ-induced mice smeared with drug, compared with the control group): increased
- psoriasis-like phenotype ([3]; IMQ-induced mice, smeared on back skin, 100 μL of 2 mg/mL diluent, 4 consecutive days, compared with the control group): aggravated
- IL-17 producing capacity αβT cells [7]: no effect
- promoting effects on the psoriasis-like phenotype and inflammatory infiltration ([7]; lack of γδT cells): offset
- transcription of IL17A [4]: increase
- transcription of IL17F [4]: increase
- NF-κB (P65) phosphorylation [5]: significantly increases
- activation of P38, ERK, JNK and AKT [5]: do not affect
- activation of NF-κB (phosphorylation) in the skin [6]: enhances

Compound: CC(C)Cn1cnc2c(N)nc3ccccc3c21 [IMQ, imiquimod]
- NE content in both skin and serum [8, 12]: higher
- dopamine in skin and serum [8, 12]: no difference
- TH phosphorylation in mouse skin ([8]; western blot): significant up-regulation
- proportion of β1-AR+ cells in γδT cells in the skin ([9]; IMQ-treated vs VAS treated mice): significantly higher
- proportion of β1-AR+ cells in αβT cells in the skin ([9]; VAS-treated vs IMQ-treated mice): no significant difference

Compound: NC[C@H](O)c1ccc(O)c(O)c1 [NE, norepinephrine]
- proportion of IL-17A+γδT cells in the skin of mice [10]: increases
- psoriasis-like phenotype of mice induced by IMQ ([10]; 4 days): exacerbates
- IL-17A induced by stimulated DCs [11]: induce
- production of IFN-γ by CD4 cells [11]: reducing

Compound: CC(C)(C)NCC(O)c1ccc(O)c(CO)c1 (stereo not drawn) [salbutamol]
- IL-23 production by DCs ([11]; DCs from treated mice): more
- IL-17A induced by stimulated DCs [11]: induce
- production of IFN-γ by CD4 cells [11]: reducing
